Experimental data as given in US20240166609A1, “ANTIBACTERIAL COMPOUNDS” (BLACKSMITH MEDICINES, INC., priority 2021, published 2024).
In brackets after ≈: the same amount, converted by molar mass.

Legend:
K. pneumoniae LpxC = K. pneumoniae LpxC (Klebsiella pneumoniae subsp. pneumoniae, UniProt A6T4N9); assay: LpxC Binding Assay (Rapid Fire MS assay); assay type: biochemical
P. aeruginosa ATCC27835 = assay: Bacterial susceptibility testing, MIC by broth microdilution (CLSI); assay type: cell-based; conditions: Pseudomonas aeruginosa, 35° C., 18-24 h, read-out: MIC (μg/mL) P. aeruginosa ATCC27835
Procedure: (§1) Minimal inhibitory concentrations (MIC) were determined by the broth microdilution method in accordance with the Clinical and Laboratory Standards Institute (CLSI) guidelines. In brief, organism suspensions were adjusted to a final inoculum between 3×10^5 and 7×10^5 colony-forming units (CFU)/mL. Drug dilutions and inocula were made in sterile, cation adjusted Mueller-Hinton Broth (Beckton Dickinson). In wells, an inoculum volume of 100 μL was mixed to 2 μL of DMSO with 2-fold serial dilutions of drug. All inoculated microdilution trays were incubated in ambient air at 35° C. for 18-24 h. Following incubation, the lowest concentration of the drug that prevented visible growth (OD600 nm<0.05) was recorded as the MIC. Performance of the assay was monitored by the use of laboratory quality-control strains and compounds with defined MIC spectrum, in accordance with CLSI guidelines

K. pneumoniae ATCC13883 = assay: as above; assay type: cell-based; conditions: Klebsiella pneumoniae, 35° C., 18-24 h, read-out: MIC (μg/mL) K. pneumoniae ATCC13883
Procedure: as §1

P. aeruginosa 209 PAO1 = assay: as above; assay type: cell-based; conditions: Pseudomonas aeruginosa, 35° C., 18-24 h, read-out: MIC (μg/mL) P. aeruginosa 209 PAO1
Procedure: as §1

E. coli LpxC = biological target: T1, E. coli LpxC (Escherichia coli, UniProt P0A725); assay: LpxC Binding Assay (Rapid Fire MS assay); assay type: biochemical
T1 sequence (P0A725 1-305): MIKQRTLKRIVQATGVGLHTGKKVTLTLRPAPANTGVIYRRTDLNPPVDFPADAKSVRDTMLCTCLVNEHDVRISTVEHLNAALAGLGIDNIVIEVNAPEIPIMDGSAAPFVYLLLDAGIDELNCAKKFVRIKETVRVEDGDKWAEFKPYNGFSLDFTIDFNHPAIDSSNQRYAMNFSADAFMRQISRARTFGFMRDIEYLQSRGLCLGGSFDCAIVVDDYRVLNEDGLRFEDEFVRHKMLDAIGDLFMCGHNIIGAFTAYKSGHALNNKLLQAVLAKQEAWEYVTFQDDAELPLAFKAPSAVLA
Procedure: (§2) IC50 values against E. coli and P. aeruginosa LpxC are determined using a Rapid Fire MS assay as previously described J. Med. Chem. 2012, 55, 1662-1670.

P. aeruginosa LpxC = biological target: T2, P. aeruginosa LpxC (Pseudomonas aeruginosa, UniProt P47205); assay: LpxC Binding Assay (Rapid Fire MS assay); assay type: biochemical
T2 sequence (P47205 1-303): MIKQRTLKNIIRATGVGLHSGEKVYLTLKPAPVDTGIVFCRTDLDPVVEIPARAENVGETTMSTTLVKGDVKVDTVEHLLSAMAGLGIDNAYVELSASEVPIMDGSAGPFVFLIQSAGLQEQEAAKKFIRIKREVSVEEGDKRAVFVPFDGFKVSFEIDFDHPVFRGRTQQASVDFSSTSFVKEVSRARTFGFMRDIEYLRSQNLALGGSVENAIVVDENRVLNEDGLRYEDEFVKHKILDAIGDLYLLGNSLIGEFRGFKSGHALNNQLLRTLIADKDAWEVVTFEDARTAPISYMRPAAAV
Procedure: as §2

E. coli ATCC25922 = assay: Bacterial susceptibility testing, MIC by broth microdilution (CLSI); assay type: cell-based; conditions: Escherichia coli, 35° C., 18-24 h, read-out: MIC (μg/mL) E. coli ATCC25922
Procedure: as §1

Sequence of K. pneumoniae LpxC (A6T4N9 whole entry): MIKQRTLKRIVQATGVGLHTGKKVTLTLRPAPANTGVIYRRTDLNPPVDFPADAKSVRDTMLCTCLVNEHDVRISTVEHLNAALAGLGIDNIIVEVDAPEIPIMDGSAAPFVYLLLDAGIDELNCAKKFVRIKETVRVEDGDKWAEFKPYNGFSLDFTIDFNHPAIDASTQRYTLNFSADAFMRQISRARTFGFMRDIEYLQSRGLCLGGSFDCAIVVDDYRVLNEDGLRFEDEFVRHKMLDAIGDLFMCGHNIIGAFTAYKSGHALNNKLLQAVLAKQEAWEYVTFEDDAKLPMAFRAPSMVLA

SMILES	MIC (P. aeruginosa ATCC27835) [µg/mL]	MIC (K. pneumoniae ATCC13883) [µg/mL]	MIC (P. aeruginosa 209 PAO1) [µg/mL]	MIC (E. coli ATCC25922) [µg/mL]	IC50 (K. pneumoniae LpxC) [nM]	IC50 (E. coli LpxC) [nM]	IC50 (P. aeruginosa LpxC) [nM]
C[C@H](O)c1nccn1[C@@H](C#Cc1ccc(-c2ccc(O[C@H]3COC[C@@H]3N)cc2)cc1)CO (relative stereo) [Compound 15, (S)-4-(4′-(((trans)-4-aminotetrahydrofuran-3-yl)oxy)-[1,1′-biphenyl]-4-yl)-2-(2-((S)-1-hydroxyethyl)-1H-imidazol-1-yl)but-3-yn-1-ol]	2 (≈ 4.61 µM)	1 (≈ 2.31 µM)	0.5 (≈ 1.15 µM)		1.6	1	9.8
C[C@H](O)c1nccn1[C@@H](C#Cc1ccc(-c2ccc(O[C@H]3COC[C@@H]3O)cc2)cc1)CN (relative stereo) [Compound 24, (trans)-4-((4′-((S)-4-amino-3-(2-((S)-1-hydroxyethyl)-1H-imidazol-1-yl)but-1-yn-1-yl)-[1,1′-biphenyl]-4-yl)oxy)tetrahydrofuran-3-ol]	4 (≈ 9.23 µM)	4 (≈ 9.23 µM)	2 (≈ 4.61 µM)		4.1	1.9	42.9
C[C@H](O)c1nccn1[C@@H](C#Cc1ccc(-c2ccc(OC[C@@H](O)CO)cc2)cc1)CO [Compound 8, (S)-3-((4′-((S)-4-hydroxy-3-(2-((S)-1-hydroxyethyl)-1H-imidazol-1-yl)but-1-yn-1-yl)-[1,1′-biphenyl]-4-yl)oxy)propane-1,2-diol]	2 (≈ 4.73 µM)	4 (≈ 9.47 µM)	2 (≈ 4.73 µM)		1.9	1	9.6
C[C@H](O)c1nccn1CC#Cc1ccc(-c2ccc(O[C@@H]3COC[C@H]3O)cc2)cc1 [Compound 42, (3R,4R)-4-((4′-(3-(2-((S)-1-hydroxyethyl)-1H-imidazol-1-yl)prop-1-yn-1-yl)-[1,1′-biphenyl]-4-yl)oxy)tetrahydrofuran-3-ol]	2 (≈ 4.94 µM)	0.5 (≈ 1.24 µM)	2 (≈ 4.94 µM)	0.5 (≈ 1.24 µM)			

More lines, main results first:

MIC (P. aeruginosa ATCC27835) [µg/mL]	MIC (K. pneumoniae ATCC13883) [µg/mL]	MIC (P. aeruginosa 209 PAO1) [µg/mL]	MIC (E. coli ATCC25922) [µg/mL]	SMILES	IC50 (K. pneumoniae LpxC) [nM]	IC50 (E. coli LpxC) [nM]	IC50 (P. aeruginosa LpxC) [nM]
2 (≈ 4.62 µM)	2 (≈ 4.62 µM)	4 (≈ 9.25 µM)	0.5 (≈ 1.16 µM)	C[C@H](O)c1nccn1[C@@H](C#Cc1ccc(-c2ccc(C[C@@H]3COC[C@H]3O)cc2)cc1)CO [Compound 41, (3S,4R)-4-((4′-((S)-4-hydroxy-3-(2-((S)-1-hydroxyethyl)-1H-imidazol-1-yl)but-1-yn-1-yl)-[1,1′-biphenyl]-4-yl)methyl)tetrahydrofuran-3-ol]			
2 (≈ 4.46 µM)	2 (≈ 4.46 µM)	4 (≈ 8.92 µM)	1 (≈ 2.23 µM)	C[C@H](O)c1nccn1[C@@H](C#Cc1ccc(-c2ccc(O[C@@H]3COC[C@H]3O)cc2)cc1)CCO [Compound 43, (3R,4R)-4-((4′-((R)-5-hydroxy-3-(2-((S)-1-hydroxyethyl)-1H-imidazol-1-yl)pent-1-yn-1-yl)-[1,1′-biphenyl]-4-yl)oxy)tetrahydrofuran-3-ol]			
4 (≈ 8.14 µM)	4 (≈ 8.14 µM)	4 (≈ 8.14 µM)	2 (≈ 4.07 µM)	COCCN1C[C@@H](O)[C@H](Oc2ccc(-c3ccc(C#C[C@@H](CO)n4ccnc4[C@H](C)O)cc3)cc2)C1 [Compound 44, (3R,4R)-4-((4′-((S)-4-hydroxy-3-(2-((S)-1-hydroxyethyl)-1H-imidazol-1-yl)but-1-yn-1-yl)-[1,1′-biphenyl]-4-yl)oxy)-1-(2-methoxyethyl)pyrrolidin-3-ol]			
2 (≈ 4.23 µM)	8 (≈ 16.9 µM)	2 (≈ 4.23 µM)	16 (≈ 33.9 µM)	C[C@H](O)c1nccn1[C@@H](C#Cc1ccc(-c2ccc(O[C@@H]3CN(CC#N)C[C@H]3O)cc2)cc1)CO [Compound 45, 2-((3R,4R)-3-hydroxy-4-((4′-((S)-4-hydroxy-3-(2-((S)-1-hydroxyethyl)-1H-imidazol-1-yl)but-1-yn-1-yl)-[1,1′-biphenyl]-4-yl)oxy)pyrrolidin-1-yl)acetonitrile]			
